From patent publication US8080660B2, “Metal complex glycogen synthase kinase 3 inhibitors” (The Trustees Of The University Of Pennsylvania, priority 2004, dated 2011)

Target: T1, GSK-3α (Homo sapiens, UniProt P49840)
T1 construct: purchased Upstate Biotechnology USA
Test: GSK-3α kinase inhibition assay ([γ-32P]ATP phosphorylation of substrate)
Assay type: biochemical
Details: 20 μM ATP
Method: Protein kinases and substrates were purchased from Upstate Biotechnology USA, except for poly(Glu-Tyr 4:1) which was obtained from Sigma-Aldrich.
After 15 mins, the reaction was initiated by adding ATP to a final concentration of 20 μM, including approximately 0.04 μCi/μl [γ-^32P]ATP. Reactions were performed in a total volume of 25 μl. After 30 min, the reaction was terminated by spotting 17.5 μl on a circular P81 phosphocellulose paper (diameter 2.1 cm, Whatman) followed by washing four times (five minutes each wash) with 0.75% phosphoric acid and once with acetone. The dried P81 papers were transferred to a scintillation vial and 5 ml of scintillation cocktail were added and the counts per minute (CPM) determined with a Beckmann 6000 scintillation counter.

T1 sequence (P49840 whole entry): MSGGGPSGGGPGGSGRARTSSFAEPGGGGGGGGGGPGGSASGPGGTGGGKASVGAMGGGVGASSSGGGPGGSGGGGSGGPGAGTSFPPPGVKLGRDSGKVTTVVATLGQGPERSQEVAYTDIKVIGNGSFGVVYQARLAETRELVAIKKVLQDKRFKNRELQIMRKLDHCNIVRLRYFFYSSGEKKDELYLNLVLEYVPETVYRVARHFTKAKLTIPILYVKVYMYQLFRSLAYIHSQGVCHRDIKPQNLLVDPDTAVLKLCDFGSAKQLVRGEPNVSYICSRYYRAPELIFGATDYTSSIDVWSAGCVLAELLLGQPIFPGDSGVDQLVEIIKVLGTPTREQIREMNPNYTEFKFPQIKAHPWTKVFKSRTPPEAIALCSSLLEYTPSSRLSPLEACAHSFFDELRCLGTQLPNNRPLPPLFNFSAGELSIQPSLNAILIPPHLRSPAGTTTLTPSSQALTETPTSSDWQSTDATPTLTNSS

IC50: 50 µM
SMILES: O=C1NC(=O)c2c1c1cccnc1c1[nH]c3ccccc3c21 [Compound 4]
